Values of other authors, collected in article PMC5957517 (Biochimica et biophysica acta, 2018).

Test system: MRSA infections
Conditions: ref [43],[44]

CN[C@H](CC(C)C)C(=O)N[C@H]1C(=O)N[C@@H](CC(N)=O)C(=O)N[C@H]2C(=O)N[C@H]3C(=O)N[C@H](C(=O)N[C@H](C(=O)O)c4cc(O)cc(O)c4-c4cc3ccc4O)[C@H](O)c3ccc(c(Cl)c3)Oc3cc2cc(c3O[C@@H]2O[C@H](CO)[C@@H](O)[C@H](O)[C@H]2O[C@H]2C[C@](C)(N)[C@H](O)[C@H](C)O2)Oc2ccc(cc2Cl)[C@H]1O [vancomycin]
reported clinical efficacy: 35-57%
